Results as given in publication PMC9268615, “Identification of Anti-Proliferative Compounds from Genista monspessulana Seeds through Covariate-Based Integration of Chemical Fingerprints and Bioactivity Datasets” (Molecules, 2022).
Values joined by “and” are separate entries in the source; they are usually repeats but may differ in a detail not shown here. Equal entries are not always repeated. Where two headings read alike, the source gives them in different places.

Experiments:
[1] = system: PC-3 (human prostate adenocarcinoma); assay: MTT cell viability assay, PC-3; format: cell-based; settings: for IC50: pure compounds, MTT, 48 h incubation
Procedure: (§1) Human prostatic adenocarcinoma (PC-3, ATCC CRL-7934), human lung adenocarcinoma (A549, ATCC CCL-185), and human cervical carcinoma (SiHa, ATCC HTB-35) cancer cell lines and normal mouse fibroblasts (L929, ATCC CRL-6364) were maintained in a humidified atmosphere with 5% CO2 at 37 °C, and grown as a monolayer culture in Dulbecco’s Modified Eagle Medium (DMEM) medium with 10% (v/v) fetal bovine serum (FBS), 1% (v/v) penicillin, and 1% (v/v) streptomycin. The anti-proliferative effects of G. monspessulana extracts and isolated compounds were measured according to a reported method. Cell suspension (100 µL, 5 × 10^3 cells/well) was inoculated in 96-well plates and cultured for 24 h. After that, the culture medium was replaced with a serum-free medium (100 µL) containing different concentrations of treatments (0.8–500 µg/mL for extracts and 0.16–100 µg/mL for pure compounds). Extracts and compounds were measured in triplicate. A PBS-containing free medium was used as a blank, 1% (w/v) bovine serum albumin-amended medium as negative control (100% survival), and curcumin (0.16–100 µg/mL) was used as the positive control. After 48 h of incubation, the cell viability was assessed by adding MTT (10 µL, 5 mg/mL) to each well, and the plates were subsequently incubated under 5% CO2 at 37 °C for 3 h. Formazan crystals were dissolved with 100 µL of DMSO. Absorbance was measured at 570 nm using a Varioskan LUX 96-well plate reader (Thermo Fisher Scientific, Waltham, MA, USA). The anti-proliferative effects were expressed as half-maximal inhibitory concentration (IC50) in µg/mL (extracts) and µM (compounds). The IC50 values were calculated from the dose-response curves through non-linear regression using GraphPad 5.0 (GraphPad Software, San Diego, CA, USA).

[2] = system: SiHa (human cervical carcinoma); assay: MTT cell viability assay, SiHa; format: cell-based; settings: for IC50: Homo sapiens, SiHa, pure compounds, MTT, 48 h incubation
Procedure: as §1

[3] = system: A549 (human lung carcinoma); assay: MTT cell viability assay, A549; format: cell-based; settings: for IC50: Homo sapiens, A549, pure compounds, MTT, 48 h incubation
Procedure: as §1

[4] = system: L929 (normal mouse fibroblasts); assay: MTT cell viability assay, L929 fibroblasts; format: cell-based; settings: 48 h incubation; for IC50: Mus musculus, L929, pure compounds; for IC50 L929: pure compounds
Procedure: as §1

[5] = system: SMMC-7721 (hepatocellular carcinoma) cells; parameters: method as in PMID 29330507; settings: cited from earlier work
A549 cell line = settings: read-out: IC50 A549; cytotoxic through apoptosis induction; cited from earlier work
[6] = system: HepG2 (human hepatocellular carcinoma) cell line; settings: cited from earlier work
FaDu cell line = settings: cited from earlier work
MCF-7 cell line = settings: cited from earlier work
MDA-MB cell line = settings: cited from earlier work
[7] = system: various cancer cell lines (KB, P-388, HL-60, K-562, MOLT-4, H2108, H1299, MRC-5, 786-O, Caki1, SN12C, SH-SY5Y, A375, SK-MEL-1, Eca109, KYSE30, HCT-116, SW480); parameters: method as in PMID 31551770; settings: cytotoxicity; cited from earlier work
PC-3 = system: PC-3; parameters: method as in doi:10.1590/S0103-50532012000300015; settings: cited from earlier work
HL-60 cell line [8] = system: HL-60 cell line; parameters: method as in PMID 16887297; settings: cytotoxic activity; cited from earlier work
HL-60 cell line [9] = system: HL-60 cell line; parameters: method as in PMID 23850732; settings: cited from earlier work
K-562 cell line = system: K-562 cell line; parameters: method as in PMID 23850732; settings: cited from earlier work
MOLT-4 cell line = system: MOLT-4 cell line; parameters: method as in PMID 23850732; settings: cited from earlier work
[10] = system: MCF-7 (human breast cancer cell line); parameters: method as in PMID 30467293; settings: vs cytisine and (−)-maackiain; cited from earlier work
[11] = system: MDA-MB-231 (human breast cancer cell line); parameters: method as in PMID 30467293; settings: vs cytisine and (−)-maackiain; cited from earlier work

Compound | IC50 ([1]; Homo sapiens, 48 h) | IC50 [2] | IC50 [3] | IC50 [4] | further results
O=C1CCC=C2C3CC(CN12)C1CCCCN1C3 (single isomer, unassigned; (+)) [Compound 7, (+)-5,6-dehydrolupanine] | 31.5 µM | > 406 µM | > 406 µM | 85.9 µM | 
CN1CC2CC(C1)c1cccc(=O)n1C2 (single isomer, unassigned; (-)) [Compound 5, (–)-N-methylcytisine] | 28.4 µM | > 490 µM | 36.3 µM | 91.3 µM | proliferation of SMMC-7721 cells [5]: can inhibit the proliferation
O=c1cccc2n1C[C@@H]1CNC[C@H]2C1 [Compound 1, (–)-cytisine] | < 18.6 µM | 357 µM | 42.5 µM | 103 µM | IC50 [1]: 15.8 µM; IC50 (A549 cell line): 26.8 µM; effect on HepG2 cell line [6]: inducing mitochondrial-mediated apoptosis; effect on FaDu cell line (FaDu cell line): not affected; effect on MCF-7 cell line (MCF-7 cell line): not affected; effect on MDA-MB cell line (MDA-MB cell line): not affected
CC1(C)C=Cc2c(cc3occ(-c4ccc(O)cc4)c(=O)c3c2O)O1 [Compound 2, alpinumisoflavone] | < 18.6 µM | 19.6 µM | > 303 µM | > 297 µM | IC50 [1]: 18.6 µM; IC50 L929 [4]: inactive; IC50 [7]: < 70 µM; IC50 (PC-3): < 30 µM
O=C1[C@@H]2C[C@H](CN3CCCC[C@@H]23)[C@H]2CCCCN12 [Compound 3, (+)-aphylline] | 21.3 µM | > 403 µM | > 403 µM | 22.3 µM | 
O=c1cccc2n1C[C@H]1C[C@@H]2CN2CCCC[C@H]12 [Compound 4, (–)-anagyrine] |  | > 409 µM | > 409 µM | 36.5 µM | IC50 ([1]; Homo sapiens): 33.5 µM; IC50 (HL-60 cell line [8]): 18 µM
CC(C)=CCc1c(O)cc2occ(-c3ccc(O)cc3)c(=O)c2c1O [Compound 6, wighteone] | 34.3 µM | > 296 µM | > 296 µM | > 296 µM | IC50 L929 [4]: inactive; IC50 (HL-60 cell line [9]): > 70 µM; IC50 (K-562 cell line): > 70 µM; IC50 (MOLT-4 cell line): > 70 µM
CC1(C)C=Cc2c(cc3occ(-c4ccc(O)c(CN5C[C@@H]6C[C@H](C5)c5cccc(=O)n5C6)c4)c(=O)c3c2O)O1 [Compound 8, (–)-3′-(N-cytisine)methylalpinumisoflavone] |  | 17.5 µM | 46.8 µM | 385 µM | IC50 ([1]; Homo sapiens): 10.1 µM; selectivity index (SI = IC50 normal cells/IC50 cancer cells) PC-3 ([1]; L929 vs PC-3): 38.1 and > 30; selectivity index (SI = IC50 normal cells/IC50 cancer cells) SiHa ([2]; L929 vs SiHa): 22.0; selectivity index (SI = IC50 normal cells/IC50 cancer cells) A549 ([3]; L929 vs A549): 8.2
COc1cc(/C=C/C(=O)CC(=O)/C=C/c2ccc(O)c(OC)c2)ccc1O [curcumin, reference compound] | 9.5 µM | 6.5 µM | 8.4 µM | 105 µM | 
tonkinensine B |  |  |  |  | fold better activity than respective precursors, MCF-7 [10]: 2–3 fold; fold better activity than respective precursors, MDA-MB-231 [11]: 2–3 fold
